Source: patent US20100099631A1, “Novel Use” (priority 2006, published 2010)
Where two headings read alike, the source gives them in different places.

Columns and labels:
[1] = test system: muscle glycogen; assay: Muscle glycogen content and resynthesis rate (vastus lateralis biopsies) after exhaustive exercise; type: in vivo, human (trained cyclists); conditions: for Muscle Glycogen Resynthesis Rate: caffeine with carbohydrate
Description: (§1) Eight trained cyclists participated in a study which was approved by the Ethics Committee of RMIT University, Melbourne, Australia. Each subject participated in two experimental trials separated by 7 to 10 days. Trials were randomised and double-blind. Approximately 12 to 14 hours before each trial, the subjects reported to the laboratory to undertake 90 minutes of intense cycling (repeated sprints) to deplete muscle glycogen stores. The subjects were then fed a standardised low carbohydrate meal (60% of energy from fat) and had to refrain from solid feeding for the following 12 to 14 hours. During this period water was allowed ad libitum.
(§2) The next morning, subjects reported to the laboratory between 0600 and 0700 hours. After a rest period of 10 minutes, an indwelling canula was inserted into the right forearm and a resting blood sample taken. Local anaesthesia was applied to the subjects skin to enable subcutaneous tissue and fascia of the vastus lateralis of the subjects right leg in preparation for muscle biopsies.
(§3) After biopsy preparation, a bout of exhaustive exercise (submaximal continuous cycling) was undertaken to further deplete muscle glycogen stores. The exhaustive cycling protocol has been previously described by McInerney et al. (McInerney P., Lessard S. J., Burke L. M., Coffey V. G., Lo Giudice S. L., Southgate R. J., Hawley J. A. Failure to repeatedly supercompensate muscle glycogen stores in highly trained men. Med. Sci. Sports Excer. 37:404-411, 2005). During exercise the subjects were allowed to drink water ad libitum and were fan-cooled.
(§4) Laboratory conditions were standardised for the tests with 50% relative humidity and a temperature of 20° C. Immediately on completion of the exercise and while subjects remained seated on the cycle ergometer, a muscle biopsy was taken and frozen within 15 seconds of the last muscle contraction. After the biopsy, subjects dismounted the ergometer and rested in a supine position. During one trial, subjects were fed 1 g/kg body mass (BM) of carbohydrate immediately upon cessation of exercise and thereafter 1 g/kg BM of carbohydrate after 60, 120 and 180 minutes of recovery (a total of 4 g/kg BM carbohydrate). In the second trial, subjects followed the same carbohydrate ingestion regimen but in addition consumed 4 mg/kg BM of caffeine immediately upon cessation of the exercise and then after 120 minutes during recovery. Blood samples were taken at regular intervals throughout the recovery period (0, 30, 60, 90, 120, 180 and 240 minutes). Muscle biopsies were taken immediately after exercise and after 1 and 4 hr of recovery. All muscle samples were stored at −80° C. until analysis.
(§5) Blood samples were analysed for plasma glucose and insulin concentrations at rest, and at regular intervals during recovery. The protocols for blood analysis are routine and have been described previously ((McInerney P., Lessard S. J., Burke L. M., Coffey V. G., Lo Giudice S. L., Southgate R. J., Hawley J. A. Failure to repeatedly supercompensate muscle glycogen stores in highly trained men. Med. Sci. Sports Excer. 37:404-411, 2005). Plasma caffeine levels were analysed by high-performance liquid chromatography. Muscle samples were analysed for glycogen content immediately after exercise and after 1 and 4 hours of recovery.

[2] = test system: muscle glucose oxidation; conditions: co-ingestion of caffeine and glucose during exercise; cited from earlier work
[3] = Plasma caffeine concentration by HPLC during recovery after exercise; type: in vivo, human (trained cyclists); conditions: for concentration at 1 h / concentration at 4 h: 4 mg/kg BM
Description: as §1, §4, §5

[4] = Plasma glucose and insulin concentrations during 4 hr recovery after glycogen-depleting exercise; type: in vivo, human (trained cyclists)
Description: as §1, §2, §3, §4, §5

[5] = 0 hr, immediately post exercise
[6] = 1 hr recovery, caffeine 4 mg/kg BM at 0 and 120 min with carbohydrate 1 g/kg BM hourly
[7] = 4 hr recovery, caffeine 4 mg/kg BM at 0 and 120 min with carbohydrate 1 g/kg BM hourly
[8] = rest, before exercise and ingestion
[9] = 0.5 hr recovery, caffeine 4 mg/kg BM at 0 and 120 min with carbohydrate 1 g/kg BM hourly
[10] = 1.5 hr recovery, caffeine 4 mg/kg BM at 0 and 120 min with carbohydrate 1 g/kg BM hourly
[11] = 2 hr recovery, caffeine 4 mg/kg BM at 0 and 120 min with carbohydrate 1 g/kg BM hourly
[12] = 3 hr recovery, caffeine 4 mg/kg BM at 0 and 120 min with carbohydrate 1 g/kg BM hourly

Cn1c(=O)c2c(ncn2C)n(C)c1=O [Caffeine, caffeine]
Muscle Glycogen Resynthesis Rate ([1]; 0-1 hr of recovery): 63.52 mm/Kg · hr · dm | Muscle Glycogen Content [1, 5]: 76 mmol/Kg · dm | Muscle Glycogen Content [1, 6]: 149 mmol/Kg · dm | Muscle Glycogen Resynthesis Rate ([1]; 1 hr-4 hr of recovery): 57.69 mm/Kg · hr · dm | Muscle Glycogen Content [1, 7]: 313 mmol/Kg · dm | Muscle Glycogen Content ([1]; after 1 hr of recovery): 149±18 mmol/kg d.w | increase of muscle glycogen content ([1]; after 1 hr of recovery, vs exhaustion): ~80% | muscle glycogen levels ([1]; after 4 hr of recovery, co-ingestion of caffeine with CHO, P<0.001 vs placebo): 313±26 mmol/kg d.w. | muscle glycogen levels at exhaustion ([1]; at exhaustion, before ingestion): 76 ± 9 mmol/kg | rates of muscle glycogen synthesis, higher than PL (carbohydrate alone) ([1]; from 1-4 hr of recovery): 66% | rates of muscle glycogen synthesis ([1]; from 1-4 hr of recovery, P<0.05 vs PL): 57.7 ± 7.6 mmol/kg/h | average rate of resynthesis, higher than PL (carbohydrate alone) ([1]; over the 4 hours of recovery): 66% | average rate of resynthesis ([1]; over the 4 hours of recovery, P<0.05 vs PL): 57.71 ± 7.6 mmol/kg/h | increase in muscle glucose oxidation [2]: 26% | concentration at 0 h ([3]; human, plasma, oral, 0 hr, immediately post exercise): 0 nM | concentration at 1 h ([3]; human, plasma, oral, 1 hr recovery, oral caffeine 4 mg/kg BM at 0 and 120 min with carbohydrate, read-out: Plasma caffeine concentration): 31.5 µM | concentration at 4 h ([3]; human, plasma, oral, 4 hr recovery, oral caffeine 4 mg/kg BM at 0 and 120 min with carbohydrate, read-out: Plasma caffeine concentration): 77.9 µM | concentration at 1 h ([3]; human, plasma, oral, after 1 hr, carbohydrate and caffeine, read-out: plasma caffeine levels): 30 µM | concentration at 4 h ([3]; human, plasma, oral, after 4 hr, carbohydrate and caffeine, read-out: plasma caffeine levels): ~80 µM | Plasma caffeine concentration [3, 8]: 0.00 µM | Plasma Glucose [4, 5]: 3.62 mmol/L | Plasma Insulin [4, 5]: 4.17 uU/mL | Plasma Glucose [4, 9]: 6.06 mmol/L | Plasma Insulin [4, 9]: 30.17 uU/mL | Plasma Glucose [4, 6]: 6.29 mmol/L | Plasma Insulin [4, 6]: 29.23 uU/mL | Plasma Glucose [4, 10]: 5.95 mmol/L | Plasma Insulin [4, 10]: 46.33 uU/mL | Plasma Glucose [4, 11]: 5.58 mmol/L | Plasma Insulin [4, 11]: 46.02 uU/mL | Plasma Glucose [4, 12]: 5.24 mmol/L | Plasma Insulin [4, 12]: 68.53 uU/mL | Plasma Glucose [4, 7]: 5.23 mmol/L | Plasma Insulin [4, 7]: 46.91 uU/mL | area under the insulin versus time curve compared to carbohydrate alone ([4]; caffeine with carbohydrate, 4 hr recovery, P<0.05): significantly greater | Plasma Glucose [4, 8]: 4.04 mmol/L | Plasma Insulin [4, 8]: 9.36 uU/mL
